The values below come from patent US20250206776A1, “ENZYME-INSTRUCTED SELF-ASSEMBLY OF PEPTIDES CONTAINING N-TERMINAL PHOSPHO-AROMATIC CAPPING MOTIF, AND USES THEREOF” (BRANDEIS UNIVERSITY, priority 2021, published 2025).

Data set [1] can be described thus: Solubility in PBS buffer / water. In kind it is physicochemical. The conditions noted are these: compared with 6.
The conditions of data set [2]: hydrophobicity of the aromatic group; cited from earlier work.
For data set [3], the system named is Saos2 cells. As to the kind of experiment: MTT assay, Saos2 cells. In kind it is cell-based, human. The conditions noted are these: Saos2, 2 h, presence or absence of DQB (20 μM). Here is the method:
(§1) Cell Culture: Saos2, SJSA1 and HepG2 cells were purchased from American Type Culture Collection (ATCC, USA). Saos2 cells were cultured in McCoy's 5A Medium (Gibco, Life Technologies) supplemented with 15% (v/v) fetal bovine serum (FBS) (Gibco, Life Technologies), 100 U/mL penicillin and 100 µg/mL streptomycin (Gibco, Life Technologies); SJSA1 cell were culture in RPMI1640 (ATCC, USA) Medium supplemented with 10% (v/v) FBS, 100 U/mL penicillin and 100 µg/mL streptomycin; HepG2 cells were cultured in Minimal Essential Medium (MEM) (Gibco, Life Technologies) supplemented with 10% (v/v) FBS, 100 U/mL penicillin and 100 µg/mL streptomycin. All the cells were maintained at 37° C. in a humidified atmosphere of 5% CO2.
(§2) MTT Assay: Cells were seeded in 96-well plates at 1×10^4 cells/well for 24 hours to allow attachment. After removing the culture medium, fresh culture medium containing different concentration of the precursors were added. After 24/48/72 hours, 10 μL MTT (ACROS Organics) solution (5 mg/mL) was added to each well to incubate at 37° C. for 4 h. 100 μL of SDS-HCl solution was then added to stop the reduction reaction and dissolve the formazan. The absorbance of each well at 595 nm was measured by a DTX880 Multimode Detector. The results were calculated as cell viability percentage relative to untreated cells. […]

For data set [4], the system named is SJSA1 cells. As to the kind of experiment: MTT assay, SJSA1 cells. In kind it is cell-based, human. The conditions noted are these: SJSA1, 2 h, presence or absence of DQB (20 μM). As for the experimental part:
as §1
as §2, with “After 24/48/72 hours, 10 μL MTT (ACROS Organics) solution (5 mg/mL) was added to each well to incubate at 37° C. for 4 h.” left out, “cells. The MTT assay was performed in triplet (n=3) and the average value of the three measurements was taken.” for “cells.”

As to `O=C(N[C@H](Cc1ccccc1)C(=O)N[C@H](Cc1ccccc1)C(=O)O)c1ccc(O)cc1` [compound 2, B-ff], the relative water solubility result in data set [1] is reported as “more water soluble than 6”.
On to `c1ccc(-c2ccccc2)cc1` [biphenyl], for which, in data set [2], the “log P” value is 3.71.
For the compound `O=C(N[C@H](Cc1ccccc1)C(=O)N[C@H](Cc1ccccc1)C(=O)O)c1ccc2cc(O)ccc2c1` [compound 4, NP-ff], in data set [1], the relative water solubility entry was “more water soluble than 6”.
For the compound `COC(=O)CC[C@@H](NC(=O)[C@@H](Cc1ccccc1)NC(=O)[C@@H](Cc1ccccc1)NC(=O)c1ccc(-c2ccc(OP(=O)(O)O)cc2)cc1)C(=O)OC` [9P], the “cytotoxicity compared to 10P (cell viability)” value in data set [3] and in data set [4] was “higher cytotoxicity” each time.
